Assay: Oxidative status / stability (PV, AV, Totox; CDR FoodLab Junior analyzer), storage with closed lids at room temperature
Format: physicochemical
Settings: for TOTOX: Totox=2*PV+AV
Procedure: The final product in powder form is isolated by evaporating said first and second organic solvents and water from the reaction mixture to recover said basic amino acid salts of PUFAs. Preferably, said evaporation step is carried under reduced pressure between about 0° C.-70° C. depending on the properties of the equipment used. The oxidative status of the obtained final product described herein is quantified by peroxide value (PV), anisidine value (AV) and Totox value. PV is a measure of the level of the primary oxidation products (lipid hydroperoxides) in the product, which is specified in milliequivalents O2 per kg of sample, while the AV is an unspecific measure of saturated and unsaturated carbonyl compounds. Totox is calculated by the equation Totox=2*PV+AV.
The comparison of oxidative status of amino acid salts of omega-3, starting material in ester form and fish oil in free acid form are assessed by measuring the PV and AV, then all the samples are subjected to the same oxidizing condition over a certain period of time, followed by the measuring PV and AV of the samples. The oxidizing conditions are selected from one of them as below: 1) Storage in closed containers at atmospheric condition for 7 months; or 2) Storage in loose closed containers exposed to air at 40° C. for 1 month.
Food Lab Analyzer: Among several techniques known in the art for determining the oxidative levels of a sample. The CDR FoodLab® Junior analyzer is used herein for determining PV and AV. The procedures are as described below:
The solid product 0.5 g was dissolved in 2 ml of MeOH and HCl solution with the ratio of 1:10 (v/v). The mixture was stirred for 5 minutes, followed by the addition of 5 ml of water. The mixture was extracted with 3 ml of hexane containing 100 ppm butylhydroxytoluene (BHT). The organic layer was dried over MgSO4, filtrated and evaporated under reduced pressure at the temperature of 0-70° C. to get the fish oil in free acid form, which is evaluated with the CDR FoodLab® Junior analyzer to get anisidine and peroxide values using the CDR FoodLab® Junior analyzer.
The molar ratio of EPA, NaOH and glycine was 1:1:1. The mixture was stirred at atmospheric condition (i.e. atmospheric pressure and room temperature) for 5 minutes to obtain a suspension solution. 100 mL of acetonitrile was added to further precipitate the glycine salt. […] About 8 g of EPA-gly was stored in a 20 ml of clear vial with a diameter of 27 mm, which was placed with closed lids on the bench at room temperature for the stability examination for 60 days.

[1] = Table 1, time 60 d, closed lids, room temperature
[2] = salt as generated, after roughing pump for 1 day

Row | Structure (SMILES) | AV (Table 1, time 1 d) | PV (Table 1, time 1 d) | TOTOX (Table 1, time 1 d) | AV [1] | PV [1] | TOTOX [1] | AV [2] | PV [2]
1 | CC/C=C\C/C=C\C/C=C\C/C=C\C/C=C\CCCC(=O)O.NCC(=O)O [EPA-gly, glycine salt of eicosapentaenoic acid] | 14.6 A/g | 29.9 meq O2/Kg | 74.4 | <0.5 A/g | 1.19 meq O2/Kg | 2.38 | 14.6 A/g | 29.9 meqO2/kg
2 | CC/C=C\C/C=C\C/C=C\C/C=C\C/C=C\C/C=C\CCC(=O)O.NCC(=O)O [DHA-gly, glycine salt of docosahexaenoic acid] | >100 A/g | 9.71 meq O2/Kg |  | 7.4 A/g | 1.92 meq O2/Kg | 11.24 |  | 9.71 meqO2/kg

From patent US20230065371A1, “PROCESS FOR MANUFACTURING SOLID NEUTRAL AMINO ACID SALTS OF POLYUNSATURATED FATTY ACIDS” (SILICYCLE INC., priority 2020, published 2023)
